This note sets out measurements from paper PMC11245619, “Asymmetric total synthesis of polycyclic xanthenes and discovery of a WalK activator active against MRSA” (Nature Communications, 2024).

pKd: −log10 of the molar value. ≈ marks a conversion by molar mass, not a printed value.

Assay [1] deals with T1, Staphylococcus aureus ATCC 29213 (SA29213).
T1 construct: ATCC 29213
Kind of assay: microbe, parasite or virus in culture. Also on record: broth microdilution MIC (CLSI), growth inhibition read by MTT. The following applies: ATCC29213, 24 h, read-out: MIC. The protocol: Antibacterial activities of synthetic compounds in vitro The MICs of the antibacterial agents for all strains were determined using the broth microdilution method according to CLSI guidelines. Wells of 96-well microtiter plates (Nunc, Thermo Fisher Scientific Inc., Roskilde) were inoculated with 100 µL of CAMH broth or CAMH broth with 3% lysed horse blood (S. pneumoniae only), containing serially-diluted antimicrobials and a final inoculum of 5 × 10^5 CFU/mL. The concentration ranges were from 0.0625 to 128 μg/mL for each compound: daptomycin, vancomycin, polymyxin B and oxacillin. The microtiter plates were incubated at 37 °C for 24 h. The MIC was defined as the lowest concentration of an antimicrobial agent that inhibited 90% of bacterial growth determined by the MTT assay (MCE, USA)]. All MIC determinations were performed in duplicate.

The target of another assay is T2, WalK (erWalK) (Staphylococcus aureus, UniProt Q6GKS6).
T2 construct: extracellular part of the receptor WalK (erWalK, residues 35-182)
Kind of assay: SPR (Biacore 8K, CM5 chip). In kind it is binding. (SPR reads the build-up and loss of mass on a sensor chip optically.)

The target in a further assay is T3, WalK (erWalKR86C) (Staphylococcus aureus, UniProt Q6GKS6, R86C).
T3 construct: erWalK (residues 35-182) with R86C mutation
T3 sequence (Q6GKS6 35-182 R86C): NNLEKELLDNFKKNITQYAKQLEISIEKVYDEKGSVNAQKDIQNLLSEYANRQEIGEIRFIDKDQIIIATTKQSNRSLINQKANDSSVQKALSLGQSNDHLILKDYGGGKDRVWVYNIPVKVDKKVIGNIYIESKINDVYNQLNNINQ
Kind of assay: SPR (Biacore 8K, CM5 chip). It counts as binding.

Regarding `CN[C@H](CC(C)C)C(=O)N[C@H]1C(=O)N[C@@H](CC(N)=O)C(=O)N[C@H]2C(=O)N[C@H]3C(=O)N[C@H](C(=O)N[C@H](C(=O)O)c4cc(O)cc(O)c4-c4cc3ccc4O)[C@H](O)c3ccc(c(Cl)c3)Oc3cc2cc(c3O[C@@H]2O[C@H](CO)[C@@H](O)[C@H](O)[C@H]2O[C@H]2C[C@](C)(N)[C@H](O)[C@H](C)O2)Oc2ccc(cc2Cl)[C@H]1O` [Vancomycin], in assay [1], the MIC worked out at 1 µg/mL (≈ 0.69 µM). On the same count and under the same terms, the value for `CC1COc2c(N3CCN(C)CC3)c(F)cc3c(=O)c(C(=O)O)cn1c23` (stereo not drawn) [Ofloxacin] was 0.2 µg/mL (≈ 0.553 µM); that for `NC[C@H]1O[C@H](O[C@H]2[C@H](O)[C@@H](O[C@H]3O[C@H](CO)[C@@H](O)[C@H](N)[C@H]3O)[C@H](N)C[C@@H]2N)[C@H](O)[C@@H](O)[C@@H]1O` [Kanamycin] was 10 µg/mL (≈ 20.6 µM). On the same count and under the same terms, next, `CC(=O)NC[C@H]1CN(c2ccc(N3CCOCC3)c(F)c2)C(=O)O1` [Linezolid]: 2.5 µg/mL (≈ 7.41 µM). The term pKd denotes the negative decadic logarithm of the Kd, by convention in mol/L. A low value points to a high Kd. In the case of `CC(C)C(=O)c1c(O)c(C(C2=C(O)C(C)(C)C(=O)C(C)(C)C2=O)C(C)C)c(O)c2c1OC1=C(C(=O)C(C)(C)C(=O)C1(C)C)C2C(C)C` (stereo not drawn) [compound 22, 22], the pKd is 4.95 on WalK (erWalK) and 4.13 at WalK (erWalKR86C). Also, in assay [1], the MIC is 0.5 µg/mL (≈ 0.768 µM). With `CN(C)c1cc(NC(=O)CNC(C)(C)C)c(O)c2c1C[C@H]1C[C@H]3[C@H](N(C)C)C(O)=C(C(N)=O)C(=O)[C@@]3(O)C(O)=C1C2=O` [Tigecycline], the MIC in assay [1] came out at 0.312 µg/mL (≈ 0.534 µM). On the same count and under the same terms, next, `C[C@@H](O)[C@H]1C(=O)N2C(C(=O)O)=C(S[C@@H]3CN[C@H](C(=O)N(C)C)C3)[C@H](C)[C@H]12` [Meropenem]: 0.312 µg/mL (≈ 0.815 µM).
